Test results as given in patent US6486185B1, “3-heteroarylidene-2-indolinone protein kinase inhibitors” (Sugen, Inc., priority 1997, dated 2002).
pIC50: −log10 of the molar value.

biological target: T1, IGF-1R (Homo sapiens, UniProt P08069); experiment: IGF-I receptor ELISA in 3T3/IGF-1R cells; assay type: cell-based; conditions: 50% inhibition of PTK activity over control
T1 construct: expressed in transfected cells; host or cells: NIH3T3 (3T3/IGF-1R)
Experimental: The cellular/catalytic assays described herein are performed in an ELISA format. The general procedure is a follows: a compound is introduced to cells expressing the test kinase, either naturally or recombinantly, for some period of time after which, if the test kinase is a receptor, a ligand known to activate the receptor's activity is added. The cells are lysed and the lysate is transferred to the wells of an ELISA plate previously coated with a specific antibody recognizing the substrate of the enzymatic phosphorylation reaction. Non-substrate components of the cell lysate are washed away and the amount of phosphorylation on the substrate is detected with an antibody specifically recognizing phosphotyrosine compared with control cells that were not contacted with a test compound.
The following protocol may be used to measure phosphotyrosine level on IGF-I receptor, which indicates IGF-I receptor tyrosine kinase activity.
The following materials and reagents are used:
a. The cell line used in this assay is 3T3/IGF-1R, a cell line genetically engineered to overexpresses IGF-1 receptor.
b. NIH3T3/IGF-1R is grown in an incubator with 5% CO2 at 37° C. The growth media is DMEM+10% FBS (heat inactivated)+2 mM L-glutamine.
c. Affinity purified anti-IGF-1R antibody 17-69.
e. Blocking Buffer: TBST plus 5% Milk (Carnation Instant Non-Fat Dry Milk).
Stock solution of TBS (10×) is prepared, and Triton X-100 is added to the buffer during dilution.
Stock solution (5×) is prepared and kept at 4° C.
h. EDTA/HCl: 0.5 M pH 7.0 (NaOH) as 100×stock.
i. Na3VO4: 0.5 M as 100×stock and aliquots are kept in −80° C.
k. Insulin-like growth factor-1 from Promega (Cat# G5111).
l. Rabbit polyclonal anti-phosphotyrosine antiserum.
m. Goat anti-rabbit IgG, POD conjugate (detection antibody), Tago (Cat. No. 4520, Lot No. 1802): Tago, Inc., Burlingame, Calif.
n. ABTS (2,2′-azinobis(3-ethylbenzthiazolinesulfonic acid)) solution:
ABTS solution should be kept in dark and 4° C. The solution should be discarded when it turns green.
o. Hydrogen Peroxide: 30% solution is kept in the dark and at 4° C.
All the following steps are conducted at room temperature unless it is specifically indicated. All ELISA plate washings are performed by rinsing the plate with tap water three times, followed by one TBST rinse. Pat plate dry with paper towels.
1. The cells, grown in tissue culture dish (Corning 25020-100) to 80-90% confluence, are harvested with Trypsin-EDTA (0.25%, 0.5 mL/D-100, GIBCO).
2. Resuspend the cells in fresh DMEM+10% FBS+2 mM L-Glutamine, and transfer to 96-well tissue culture plate (Corning, 25806-96) at 20,000 cells/well (100 μL/well). Incubate for 1 day then replace medium to serum-free medium (90/μL) and incubate in 5% CO2 and 37° C. overnight.
B. ELISA Plate Coating and Blocking:
1. Coat the ELISA plate (Corning 25805-96) with Anti-IGF-1R Antibody at 0.5 μg/well in 100 μL PBS at least 2 hours.
2. Remove the coating solution, and replace with 100 μL Blocking Buffer, and shake for 30 minutes. Remove the blocking buffer and wash the plate just before adding lysate.
1. The drugs are tested in serum-free condition.
2. Dilute drug stock (in 100% DMSO) 1:10 with DMEM in 96-well poly-propylene plate, and transfer 10 μL/well of this solution to the cells to achieve final drug dilution 1:100, and final DMSO concentration of 1.0%. Incubate the cells in 5% CO2 at 37° C. for 2 hours.
3. Prepare fresh cell lysis buffer (HNTG*)
4. After drug incubation for two hours, transfer 10 μL/well of 200 nM IGF-1 Ligand in PBS to the cells (Final Conc.=20 nM), and incubate at 5% CO2 at 37° C. for 10 minutes.
5. Remove media and add 100 μL/well HNTG* and shake for 10 minutes. Look at cells under microscope to see if they are adequately lysed.
6. Use a 12-channel pipette to scrape the cells from the plate, and homogenize the lysate.by repeated aspiration and dispensing. Transfer all the lysate to the antibody coated ELISA plate, and shake for 1 hour.
7. […]

T1 sequence (P08069 31-1367, species assumed): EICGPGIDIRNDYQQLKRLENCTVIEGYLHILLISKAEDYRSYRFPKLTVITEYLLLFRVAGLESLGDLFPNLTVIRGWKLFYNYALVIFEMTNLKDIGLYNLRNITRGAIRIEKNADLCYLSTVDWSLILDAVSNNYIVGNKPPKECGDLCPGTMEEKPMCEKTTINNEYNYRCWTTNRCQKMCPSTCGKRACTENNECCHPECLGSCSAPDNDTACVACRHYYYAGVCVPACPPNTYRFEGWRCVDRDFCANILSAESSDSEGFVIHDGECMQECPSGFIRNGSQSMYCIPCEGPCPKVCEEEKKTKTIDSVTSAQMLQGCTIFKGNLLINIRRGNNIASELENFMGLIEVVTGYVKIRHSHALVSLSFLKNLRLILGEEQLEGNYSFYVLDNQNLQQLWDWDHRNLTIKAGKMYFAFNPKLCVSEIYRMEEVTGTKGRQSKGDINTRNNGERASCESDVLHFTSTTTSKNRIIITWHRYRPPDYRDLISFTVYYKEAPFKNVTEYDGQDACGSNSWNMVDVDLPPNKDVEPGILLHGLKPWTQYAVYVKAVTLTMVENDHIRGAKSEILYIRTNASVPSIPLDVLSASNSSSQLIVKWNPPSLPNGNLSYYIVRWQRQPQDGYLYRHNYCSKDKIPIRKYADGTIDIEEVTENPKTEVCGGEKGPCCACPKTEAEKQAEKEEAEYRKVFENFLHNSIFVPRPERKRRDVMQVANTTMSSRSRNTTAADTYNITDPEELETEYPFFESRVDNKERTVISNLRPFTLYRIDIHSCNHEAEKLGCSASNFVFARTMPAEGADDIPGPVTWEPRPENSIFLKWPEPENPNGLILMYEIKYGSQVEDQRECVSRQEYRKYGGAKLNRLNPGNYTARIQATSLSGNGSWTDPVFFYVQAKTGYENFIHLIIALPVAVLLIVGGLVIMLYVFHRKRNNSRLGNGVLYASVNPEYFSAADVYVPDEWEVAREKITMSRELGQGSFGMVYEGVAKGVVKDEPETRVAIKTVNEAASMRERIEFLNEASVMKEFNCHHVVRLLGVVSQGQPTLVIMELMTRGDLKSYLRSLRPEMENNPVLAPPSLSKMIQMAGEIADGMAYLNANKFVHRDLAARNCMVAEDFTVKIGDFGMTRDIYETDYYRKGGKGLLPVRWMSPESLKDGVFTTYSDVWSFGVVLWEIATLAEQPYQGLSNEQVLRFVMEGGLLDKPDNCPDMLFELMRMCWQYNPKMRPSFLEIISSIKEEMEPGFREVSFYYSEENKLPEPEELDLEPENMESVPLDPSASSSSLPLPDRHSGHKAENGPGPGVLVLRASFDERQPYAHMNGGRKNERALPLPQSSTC

Question: `CCOC(=O)c1c(C)[nH]c(C=C2C(=O)Nc3ccc(NC(=O)c4ccc(C(=O)OC)cc4)cc32)c1C` [3-(2,4-dimethyl-3-ethoxycarbonylpyrrol-5-methylidenyl)-5-(4-methoxycarbonylbenzamido)-2-indolinone] was tested. Which pIC50 did it give?
Answer: The pIC50 was under 5.00.

Question: How did the pIC50 turn out when `CCOC(=O)c1c(C)[nH]c(C=C2C(=O)Nc3ccc(Br)cc32)c1C` [3-(2,4-dimethyl-3-ethoxycarbonylpyrrol-5-methylidenyl)-5-bromo-2-indolinone] was run?
Answer: The pIC50 was under 4.00.

Question: `CC(=O)c1[nH]c(C=C2C(=O)Nc3ccccc32)c(C)c1C` [3-(2-acetyl-3,4-dimethylpyrrol-5-methylidenyl)-2-indolinone] was tested. Which pIC50 did it give?
Answer: The pIC50 was under 4.00.

Question: `COC(=O)Cc1c(Cl)[nH]c(C=C2C(=O)Nc3ccccc32)c1C(=O)OC` [3-(2-chloro-4-methoxycarbonyl-3-methoxycarbonylmethylpyrrol-5-methylidenyl)-2-indolinone] was tested. Which pIC50 did it give?
Answer: Its pIC50 is under 4.30.

Question: `CCOC(=O)c1[nH]c(C=C2C(=O)Nc3ccccc32)c(C(C)=O)c1C` [3-(4-acetyl-2-ethoxycarbonyl-3-methylpyrrol-5-methylidenyl)-2-indolinone] was tested. Which pIC50 did it give?
Answer: Its pIC50 is under 5.00.

Question: How did the pIC50 turn out when `CCOC(=O)c1c[nH]c(C=C2C(=O)Nc3ccccc32)c1C` [3-(4-ethoxycarbonyl-3-methylpyrrol-2-methylidenyl)-2-indolinone] was run?
Answer: Its pIC50 is under 4.00.

Question: How did the pIC50 turn out when `CCOC(=O)CCc1c(C(=O)OCC)[nH]c(C=C2C(=O)Nc3ccccc32)c1CC(=O)OCC` [3-[2-ethoxycarbonyl-3-(2-ethoxycarbonylethyl)-4-ethoxycarbonylmethyl)pyrrol-5-methylidenyl)-2-indolinone] was run?
Answer: The pIC50 was under 5.00.

Question: `Cc1c[nH]c(C=C2C(=O)Nc3ccccc32)c1CCC(=O)O` [3-[3-(2-carboxyethyl-4-methylpyrrol-2-methylidenyl]-2-indolinone] was tested. Which pIC50 did it give?
Answer: The pIC50 was under 4.00.

Question: `COC(=O)CCc1c[nH]c(C=C2C(=O)Nc3cc(OC)c(OC)cc32)c1C` [3-[4-(2-methoxycarbonylethyl)-3-methylpyrrol-2-methylidenyl]-5,6-dimethoxy-2-indolinone] was tested. Which pIC50 did it give?
Answer: Its pIC50 is under 4.30.

Question: With `COC(=O)CCc1c[nH]c(C=C2C(=O)Nc3ccccc32)c1C` [3-[4-(2-methoxycarbonylethyl-3-methylpyrrol-2-methylidenyl]-2-indolinone] as the compound, how does the pIC50 read?
Answer: Its pIC50 is under 4.00.
